# Results from PubChem BioAssay AID1259407 (Chemical Carcinogenesis Research Information System (CCRIS), 2018).
# Activity calls are given as the source filed them. How the calls were made is not given here.
# Test system: CCRIS mutagenicity, Ames/micronucleus/aberration tests
# Assay: CCRIS mutagenicity studies
# Text: The CCRIS database contains chemical records with carcinogenicity, mutagenicity, tumor promotion, and tumor inhibition test results. It was developed by the National Cancer Institute (NCI). Data are derived from studies cited in primary journals, current awareness tools, NCI reports, and other sources. Test results have been reviewed by experts in carcinogenesis and mutagenesis.
# CCRIS provides historical information from the years 1985 - 2011. It is no longer updated.
# This is an archive assay for CCRIS mutagenicity studies.
# [1] = Test System: AMES SALMONELLA TYPHIMURIUM, Strain/Indicator: TA98, Metabolic Activation: NONE, Method: PREINCUBATION
# [2] = Test System: AMES SALMONELLA TYPHIMURIUM, Strain/Indicator: TA100, Metabolic Activation: NONE, Method: PREINCUBATION
# [3] = Test System: AMES SALMONELLA TYPHIMURIUM, Strain/Indicator: TA1535, Metabolic Activation: NONE, Method: PREINCUBATION
# [4] = Test System: AMES SALMONELLA TYPHIMURIUM, Strain/Indicator: TA1537, Metabolic Activation: NONE, Method: PREINCUBATION
# [5] = Test System: AMES SALMONELLA TYPHIMURIUM, Strain/Indicator: TA100, Metabolic Activation: NONE, Method: STANDARD PLATE
# [6] = Test System: AMES SALMONELLA TYPHIMURIUM, Strain/Indicator: TA98, Metabolic Activation: NONE, Method: STANDARD PLATE
# [7] = Test System: AMES SALMONELLA TYPHIMURIUM, Strain/Indicator: TA98, Metabolic Activation: HAMSTER, LIVER, S-9, AROCLOR 1254 (10%), Method: PREINCUBATION
# [8] = Test System: AMES SALMONELLA TYPHIMURIUM, Strain/Indicator: TA98, Metabolic Activation: RAT, LIVER, S-9, AROCLOR 1254 (10%), Method: PREINCUBATION
# [9] = Test System: AMES SALMONELLA TYPHIMURIUM, Strain/Indicator: TA100, Metabolic Activation: HAMSTER, LIVER, S-9, AROCLOR 1254 (10%), Method: PREINCUBATION
# [10] = Test System: AMES SALMONELLA TYPHIMURIUM, Strain/Indicator: TA100, Metabolic Activation: RAT, LIVER, S-9, AROCLOR 1254 (10%), Method: PREINCUBATION
# [11] = Test System: AMES SALMONELLA TYPHIMURIUM, Strain/Indicator: TA1535, Metabolic Activation: HAMSTER, LIVER, S-9, AROCLOR 1254 (10%), Method: PREINCUBATION
# [12] = Test System: AMES SALMONELLA TYPHIMURIUM, Strain/Indicator: TA1535, Metabolic Activation: RAT, LIVER, S-9, AROCLOR 1254 (10%), Method: PREINCUBATION
# [13] = Test System: AMES SALMONELLA TYPHIMURIUM, Strain/Indicator: TA1537, Metabolic Activation: HAMSTER, LIVER, S-9, AROCLOR 1254 (10%), Method: PREINCUBATION
# [14] = Test System: AMES SALMONELLA TYPHIMURIUM, Strain/Indicator: TA1537, Metabolic Activation: RAT, LIVER, S-9, AROCLOR 1254 (10%), Method: PREINCUBATION
smiles,measurement,setting,value
Nc1nc(N)nc(-c2ccccc2)n1,mutagenic call,[1],inactive; negative
same,mutagenic call,"Test System: AMES SALMONELLA TYPHIMURIUM, Strain/Indicator: TA98, Metabolic Activation: RAT, LIVER, S-9, PHENOBARBITAL AND BETA-NAPHTHOFLAVONE, Method: PREINCUBATION",inactive; negative
same,mutagenic call,[2],inactive; negative
same,mutagenic call,"Test System: AMES SALMONELLA TYPHIMURIUM, Strain/Indicator: TA100, Metabolic Activation: RAT, LIVER, S-9, PHENOBARBITAL AND BETA-NAPHTHOFLAVONE, Method: PREINCUBATION",inactive; negative
same,mutagenic call,"Test System: AMES SALMONELLA TYPHIMURIUM, Strain/Indicator: TA102, Metabolic Activation: NONE, Method: PREINCUBATION",inactive; negative
same,mutagenic call,"Test System: AMES SALMONELLA TYPHIMURIUM, Strain/Indicator: TA102, Metabolic Activation: RAT, LIVER, S-9, PHENOBARBITAL AND BETA-NAPHTHOFLAVONE, Method: PREINCUBATION",inactive; negative
same,mutagenic call,"Test System: AMES SALMONELLA TYPHIMURIUM, Strain/Indicator: TA104, Metabolic Activation: NONE, Method: PREINCUBATION",inactive; negative
same,mutagenic call,"Test System: AMES SALMONELLA TYPHIMURIUM, Strain/Indicator: TA104, Metabolic Activation: RAT, LIVER, S-9, PHENOBARBITAL AND BETA-NAPHTHOFLAVONE, Method: PREINCUBATION",inactive; negative
same,mutagenic call,[3],inactive; negative
same,mutagenic call,"Test System: AMES SALMONELLA TYPHIMURIUM, Strain/Indicator: TA1535, Metabolic Activation: RAT, LIVER, S-9, PHENOBARBITAL AND BETA-NAPHTHOFLAVONE, Method: PREINCUBATION",inactive; negative
same,mutagenic call,[4],inactive; negative
same,mutagenic call,"Test System: AMES SALMONELLA TYPHIMURIUM, Strain/Indicator: TA1537, Metabolic Activation: RAT, LIVER, S-9, SODIUM PHENOBARBITAL AND 5,6-BENZOFLAVONE, Method: PREINCUBATION",inactive; negative
same,mutagenic call,"Test System: E. COLI, Strain/Indicator: WP2UVRA/PKM101, Metabolic Activation: NONE, Method: PREINCUBATION",inactive; negative
same,mutagenic call,"Test System: E. COLI, Strain/Indicator: WP2UVRA/PKM101, Metabolic Activation: RAT, LIVER, S-9, SODIUM PHENOBARBITAL AND 5,6-BENZOFLAVONE, Method: PREINCUBATION",inactive; negative
same,mutagenic call,"Test System: E. COLI, Strain/Indicator: WP2UVRA, Metabolic Activation: NONE, Method: PREINCUBATION",inactive; negative
same,mutagenic call,"Test System: E. COLI, Strain/Indicator: WP2UVRA, Metabolic Activation: RAT, LIVER, S-9, PHENOBARBITAL AND BETA-NAPHTHOFLAVONE, Method: PREINCUBATION",inactive; negative
Cc1ccc(S(=O)(=O)OC[C@H]2CO2)cc1,mutagenic call,[2],active; positive
same,mutagenic call,[5],active; positive
same,mutagenic call,"Test System: AMES SALMONELLA TYPHIMURIUM, Strain/Indicator: TA100, Metabolic Activation: RAT, LIVER, S-9, PCB, Method: PREINCUBATION",active; positive
CC(O)C(=O)[O][Al]([O]C(=O)C(C)O)[O]C(=O)C(C)O (configuration not stated),mutagenic call,"Test System: AMES SALMONELLA TYPHIMURIUM, Strain/Indicator: TA92, Metabolic Activation: NONE, Method: STANDARD PLATE",inactive; negative
same,mutagenic call,[6],inactive; negative
same,mutagenic call,[5],inactive; negative
same,mutagenic call,"Test System: AMES SALMONELLA TYPHIMURIUM, Strain/Indicator: TA104, Metabolic Activation: NONE, Method: STANDARD PLATE",inactive; negative
CCCCCCCCCCCOC(=O)c1ccccc1C(=O)OCCCCCCCCCCC,mutagenic call,[7],inactive; negative
same,mutagenic call,[1],inactive; negative
same,mutagenic call,[8],inactive; negative
same,mutagenic call,[9],inactive; negative
same,mutagenic call,[2],inactive; negative
same,mutagenic call,[10],inactive; negative
same,mutagenic call,[11],inactive; negative
same,mutagenic call,[3],inactive; negative
same,mutagenic call,[12],inactive; negative
same,mutagenic call,[13],inactive; negative
same,mutagenic call,[4],inactive; negative
same,mutagenic call,[14],inactive; negative
same,mutagenic call,"Test System: MOUSE LYMPHOMA, Strain/Indicator: L5178Y (TK+/TK-), Metabolic Activation: NONE, Method: SUSPENSION/PLATE",inactive; negative
same,mutagenic call,"Test System: MOUSE LYMPHOMA, Strain/Indicator: L5178Y (TK+/TK-), Metabolic Activation: RAT LIVER S-9, Method: SUSPENSION/PLATE",inactive; negative
Cc1ccc([N+](=O)[O-])c(C)c1[N+](=O)[O-],mutagenic call,[1],inactive; negative
same,mutagenic call,"Test System: AMES SALMONELLA TYPHIMURIUM, Strain/Indicator: TA98, Metabolic Activation: RAT, LIVER, S-9, KANECHLOR 500, Method: PREINCUBATION",inactive; negative
same,mutagenic call,"Test System: AMES SALMONELLA TYPHIMURIUM, Strain/Indicator: TA100, Metabolic Activation: RAT, LIVER, S-9, KANECHLOR 500, Method: PREINCUBATION",active; positive
O=C1[O][Bi][O]c2ccccc21,mutagenic call,[7],inactive; negative
same,mutagenic call,[1],inactive; negative
same,mutagenic call,[8],inactive; negative
same,mutagenic call,[9],inactive; negative
same,mutagenic call,[2],inactive; negative
same,mutagenic call,[10],inactive; negative
same,mutagenic call,[11],inactive; negative
same,mutagenic call,[3],inactive; negative
same,mutagenic call,[12],inactive; negative
same,mutagenic call,[13],inactive; negative
same,mutagenic call,[4],inactive; negative
same,mutagenic call,[14],inactive; negative
O=NN1CCSC1[C@H](O)[C@@H](O)[C@@H](O)CO (some centres not stated),mutagenic call,[1],inactive; negative
same,mutagenic call,[6],inactive; negative
same,mutagenic call,"Test System: AMES SALMONELLA TYPHIMURIUM, Strain/Indicator: TA98, Metabolic Activation: RAT, LIVER, S-9, AROCLOR 1254, Method: PREINCUBATION",inactive; negative
same,mutagenic call,"Test System: AMES SALMONELLA TYPHIMURIUM, Strain/Indicator: TA98, Metabolic Activation: RAT, LIVER, S-9, AROCLOR 1254, Method: STANDARD PLATE",inactive; negative
same,mutagenic call,[2],inactive; negative
same,mutagenic call,[5],inactive; negative
same,mutagenic call,"Test System: AMES SALMONELLA TYPHIMURIUM, Strain/Indicator: TA100, Metabolic Activation: RAT, LIVER, S-9, AROCLOR 1254, Method: PREINCUBATION",inactive; negative
same,mutagenic call,"Test System: AMES SALMONELLA TYPHIMURIUM, Strain/Indicator: TA100, Metabolic Activation: RAT, LIVER, S-9, AROCLOR 1254, Method: STANDARD PLATE",inactive; negative
O=[N+]([O-])c1ccc2c(c1)CCc1cc([N+](=O)[O-])ccc1-2,mutagenic call,"Test System: AMES SALMONELLA TYPHIMURIUM, Strain/Indicator: TA98(1,8-DNP6), Metabolic Activation: NONE, Method: STANDARD PLATE",active; positive
same,mutagenic call,"Test System: AMES SALMONELLA TYPHIMURIUM, Strain/Indicator: TA98(NR), Metabolic Activation: NONE, Method: STANDARD PLATE",active; positive
same,mutagenic call,[6],active; positive
Nc1cccc(N)c1C(=O)O,mutagenic call,[1],inactive; negative
same,mutagenic call,"Test System: AMES SALMONELLA TYPHIMURIUM, Strain/Indicator: TA98, Metabolic Activation: RAT, LIVER, S-9, PHENOBARBITAL AND 5,6-BENZOFLAVONE, Method: PREINCUBATION",active; positive
same,mutagenic call,[2],inactive; negative
same,mutagenic call,"Test System: AMES SALMONELLA TYPHIMURIUM, Strain/Indicator: TA100, Metabolic Activation: RAT, LIVER, S-9, PHENOBARBITAL AND 5,6-BENZOFLAVONE, Method: PREINCUBATION",inactive; negative
